Data: paper PMC9296036, “A peptide interfering with the dimerization of oncogenic KITENIN protein and its stability suppresses colorectal tumour progression” (Clinical and Translational Medicine, 2022)
Ends that are not written are not given here.

Assay: Stability of KDIP in mouse serum in vitro (LC-MS/MS)
Format: in vitro ADME
Details: 10 pmol KDIP spiked to 10 μl serum, room temperature, 0-160 min (7 times), LC-MS/MS MRM, n=3 per time
Method: Experiment for stability in serum was conducted with seven different incubation time (0, 5, 10, 20, 40, 80, 160 min). KDIP 10 pmol was spiked to 10 μl of serum, and samples were incubated at room temperature. Samples for each incubation time were triplicated.
Peptide extraction from serum or tissue lysate was performed by solid‐phase extraction using Oasis HLB Cartridge 1‐cm^3 (30 mg). HLB cartridges were conditioned using ACN (1 ml) and 50% ACN, .5% FA (1 ml), followed by equilibration using .5% FA (2 ml). A volume of 10‐μl serum and 20 μl of tissue lysate were added by .5% FA to be 1 ml and were loaded on equilibrated cartridges. […]
Each sample was analysed using an Agilent 1100 Series high‐performance liquid chromatography pump (Agilent Technologies, USA) coupled to an LTQ linear ion trap mass spectrometer (Thermo Finnigan, USA). […] Peptide was quantified by multiple reaction monitoring (MRM) in positive ion mode, with a spray voltage of 2.3 kV. […] Furthermore, truncated forms ([…], […]) of KDIP that were detected during stability test were also analysed by following transitions: 468.5 → 404.8 (b16 ^+5), 468.5 → 444.85 (b18 ^+5), 468.5 → 505.7 (b16 ^+4), 468.5 → 551.35 (b18 + H2O^+4), 468.5 → 555.7 (b18 ^+4), 528.45 → 448.85 (b14 ^+4), 528.45 → 499.0 (b16 ^+4), 528.45 → 598.15 (b14 ^+3), 528.45 → 659.25 (b16 + H2O^+3) and 528.45 → 664.95 (b16 ^+3). […]

With YARVRRRGPRRWRLVSDEAV [KDIP] the “terminal half-life in mouse serum in vitro” value was 30.86 min.
